Results published in patent publication US12227500B2, “Substituted pyrrolo[2,3-b]pyridines for suppressing toxic endoplasmic reticulum stress” (THE TRUSTEES OF COLUMBIA UNIVERSITY IN THE CITY OF NEW YORK, priority 2018, dated 2025).
Several values for one entry are separate records, joined by “and”; a condition that tells them apart may be missing. Equal entries are not always repeated. Where two headings read alike, the source gives them in different places.

Legend:
[1] = Spectrophotometric solubility assay of vehicle formulations (540 nM); type: physicochemical
Method: These mixtures were then read on a spectrophotometer at […] to assess optical density, a measure of the transparency of the mixture and an indicator of the formation of precipitates. […] At higher concentrations, these precipitates were visible by eye.
Compounds diluted in different vehicle formulations were added to clear cell culture media at ratios consistent with our in vivo dosing scheme.

[2] = Pharmacokinetics of compound 1 in mice (background); conditions: mouse, in vivo
[3] = In vivo pharmacokinetics, IP injection or oral gavage, 10 mg/kg; design: species or system mouse; conditions: for Kp at 3 h: brain/plasma, read-out: Brain/plasma ratio at 3 h; for Cmax: plasma
Method: Based on its strong performance in the microsome assay, 12k was selected for further pharmacokinetic analysis in vivo. Compounds 1 and 12k were administered to 8 week-old wild-type […] mice at 10 mg/kg through intraperitoneal (IP) injection or oral gavage (OG). Brains and plasma were collected across 4 time points over 24 h for LC-MS/MS analysis.
Compounds 1 and 12k were dissolved in DMSO to 40 mg/mL. For in vivo administration, the DMSO stock was further diluted to 2 mg/mL in a vehicle containing 40% PEG-400 (Sigma) and 55% of a (2-hydroxypropyl)-beta-cyclodextrin solution (20% in nanopure water, Sigma). Compounds were delivered at 10 mg/kg by intraperitoneal injection or oral gavage to 8 week-old male wild-type C57Bl6J mice (Jackson). After 15 min, 3 h, 8 h or 24h, animals were anesthetized with a mixture of ketamine (100 mg/kg) and xylazine (10 mg/kg), then decapitated to collect trunk blood and dissect fresh brain tissue. Blood samples were treated with EDTA solution (50 mM final concentration) to prevent coagulation and centrifuged for 10 min at 845 rcf at 4° to separate plasma. Fresh brains were lysed in 5 volumes of ddH2O.
Plasma samples were transferred to Eppendorf tubes (50 μL per sample) and diluted with acetonitrile (200 μL). The samples were sonicated for 1 minute followed by centrifugation at 16,000 rpm for 10 minutes. The supernatant was transferred to another Eppendorf tube and the solvent evaporated overnight. The samples were reconstituted in a mixture of 40 μL acetonitrile and 10 μL water transferred to a sample vial with insert, and analyzed by LC-MS.
Homogenized brain samples (250 μL) were transferred to Eppendorf tubes and diluted with acetonitrile (750 μL). The samples were sonicated for 1 minute followed by centrifugation at 16,000 rpm for 10 minutes. The supernatant (900 μL) was transferred to another Eppendorf tube and the solvent evaporated overnight. The samples were reconstituted in a mixture of 80 μL acetonitrile and 20 μL water, transferred to a sample vial with insert, and analyzed by LC-MS.
LC-MS analysis was performed on a platform comprising a Thermo Scientific Dionex Ultimate 3000 and a Bruker amaZon SL equipped with an electrospray ionization source controlled by Bruker Hystar 3.2. The compound concentration in each plasma sample was determined using a calibration curve. Chromatographic separation was performed by injecting 10 μL of the sample onto an Agilent Eclipse Plus C18 column (2.1×50 mm, 3.5 μm) maintained at 20° C. The flow rate was maintained at 400 μL/min. The initial flow conditions were 60% solvent A (water containing 0.1% acetic acid) and 40% solvent B (methanol containing 0.1% acetic acid). Solvent B was raised to 60% over 0.25 minutes and to 70% by 6.75 minutes.

[4] = system: panel of 60 human kinases; test: Radiolabeled ATP kinase assay, panel of 60 kinases (Table S5); type: biochemical; conditions: 0.5 μM
Outline: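 Cell-free radiolabeled-ATP kinase assays across a panel of 60 kinases; each compound tested at 0.1 μM and 0.5 μM for inhibition.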

[5] = system: N9 microglial cells; test: TNFα release by LPS-stimulated microglia (ELISA); type: cell-based, mouse; conditions: for TNFα secretion in LPS-stimulated microglia: LPS 0.1-5 μM, 24 h
Method: To model microglial activation in vitro, we stimulated mouse N9 microglial cells with increasing concentrations of E. coli-derived lipopolysaccharides (LPS) (0.1-5 μM) to measure release of the pro-inflammatory cytokine TNFα into cell culture media.
Cultures were maintained in DMEM containing FBS (10%, Life Technologies) and Glutamax (1%, Life Technologies). […] N9 cells remaining in the culture dishes were treated with AlamarBlue (Thermo Fisher) to assess viability. 5 μL AlamarBlue was added to each well (containing 50 μL culture media) and incubated for 4 h at 37°.

[6] = system: human ALS stem cell-derived motor neurons; test: Rescue of CPA toxicity, 6-point dose-response assay (FIG. 2B); type: cell-based
[7] = system: phospho-cjun; test: Phospho-cjun in olfactory bulbs after treatment in vivo (western blot); design: species or system mouse; conditions: 10 mg/kg oral gavage
Method: Compounds at 10 mg/kg were delivered intraperitoneally (IP), orally, or sub-cutaneously (SC). Animals were sacrificed 1 h after treatment. Their olfactory bulbs were dissected and lysed for western blot analysis. Phospho-cjun expression was normalized to the housekeeping protein GAPDH.
We therefore selected phospho-cjun as a marker of target engagement for further in vivo studies. C-jun is highly expressed throughout the murine central nervous system, especially in the olfactory bulbs. […] Animals were then sacrificed after 1 h, and their olfactory bulbs were sub-dissected and lysed for further western blot analysis. Samples were probed with an antibody specific to phosphorylated c-jun (at serine 63; cell signaling) and normalized to the housekeeping gene GAPDH.

[8] = system: targets of cyclin-dependent kinases and mitogen activated kinases; test: Target engagement in CNS, per os 7 days (phosphoprotein blot of brain); type: in vivo, mouse; conditions: 5 or 10 mg/kg
Method: To explore the target engagement in CNS for compound 12k, compounds 1 and 12k were administered continuously per os to wild-type mice (n=3 per treatment). […] Fresh brain samples were harvested after 7 days of treatment. Reduced brain samples were separated by SDS-PAGE and probed with an antibody that recognizes phosphoproteins that have been phosphorylated at motifs corresponding to the targets of cyclin-dependent kinases and mitogen activated kinases.

[9] = Safety of long-term administration in drinking water; type: in vivo; conditions: 10 mg/kg, 60 days from P30
Description: […]. Treatment began at P30 and continued for 60 days.

[10] = system: panel of 371 human kinases; test: Radiolabeled ATP kinase assay, panel of 371 kinases (Table S6); type: biochemical; conditions: 0.1 μM, 10 μM ATP
Description: ; FIG. 38C). […]. Further targeted analyses, such as genetic knock-down or knock-out, may be warranted to parse the role of these additional kinases in our model of neurodegeneration.

CN1CCN(Cc2ccc(-c3cnc4[nH]cc(-c5ccc6[nH]ccc6c5)c4c3)cc2)CC1 [Compound 1, 3-(1H-Indol-5-yl)-5-(4-((4-methylpiperazin-1-yl)methyl)phenyl)-1H-pyrrolo[2,3-b]pyridine, reference compound]
solubility after adding 2-hydroxypropyl-β-cyclodextrin to the vehicle ([1]; 11% 2-hydroxypropyl-β-cyclodextrin): fully solubilize | solubility in cell culture media ([1]; formulation 55% saline, 40% PEG-400, 5% DMSO): highly insoluble | half-life [2]: 2 to 3 h | Oral bioavailability (% F) based on plasma measurements in IP vs. OG-treated animals [3]: 46% | Brain AUC ([3]; IP): 1568 ng·h/mL | Brain mean Cmax ([3]; IP): 208.83 µg/kg | Plasma AUC ([3]; IP): 7328 ng·h/mL | Brain AUC ([3]; OG): 567.2 ng·h/mL | Brain mean Cmax ([3]; OG): 83.35 µg/kg | Plasma AUC ([3]; OG): 3401 ng·h/mL | Kp at 3 h ([3]; male, mouse, ip): 0.25 | Kp at 3 h ([3]; male, mouse, oral, OG): 0.18 | Cmax ([3]; male, mouse, ip): 972 ng/mL | Cmax ([3]; male, mouse, po, OG): 476 ng/mL | number of the 60 kinases strongly inhibited (<20% residual activity) [4]: 27 | TNFα secretion in LPS-stimulated microglia [5]: significantly and dose-dependently decreased TNFα secretion | cellular potency [6]: > 0.1 µM | concentrations showing protective effects ([6]; 33 μM CPA): ≥ 100 nM | concentration that completely reversed CPA-induced neurodegeneration ([6]; 33 μM CPA, 0.01 μM-3 μM): 1 µM

OCCN1CCN(Cc2ccc(-c3cnc4[nH]cc(-c5cccc(Cl)c5)c4c3)cc2)CC1 [Compound 12k, 2-(4-(4-(3-(3-Chlorophenyl)-1H-pyrrolo[2,3-b]pyridin-5-yl)benzyl)piperazin-1-yl)ethan-1-ol]
oral bioavailability (from reduction of cjun phosphorylation after oral gavage) [7]: orally bioavailable | intensity of a high molecular weight phosphoprotein band in brain vs vehicle or compound 1 [8]: consistently decreased the intensity of a high molecular weight band | Oral bioavailability (% F) based on plasma measurements in IP vs. OG-treated animals [3]: 73% | Brain AUC ([3]; IP): 11570 ng·h/mL | Brain mean Cmax ([3]; IP): 1162.23 µg/kg | Plasma AUC ([3]; IP): 3899 ng·h/mL | brain Cmax ([3]; IP-injected): 1162 ng/g and 2.60 μM | Brain AUC ([3]; OG): 8429 ng·h/mL | Brain mean Cmax ([3]; OG): 658.88 µg/kg | Plasma AUC ([3]; OG): 2785 ng·h/mL | bioavailability ([3]; male, mouse, brain, po, read-out: Oral bioavailability (% F) by comparing brain measurements): 73% | Kp at 3 h ([3]; male, mouse, ip): 3.91 | Kp at 3 h ([3]; male, mouse, oral, OG): 2.58 | Cmax ([3]; male, mouse, ip): 454 ng/mL | Cmax ([3]; male, mouse, po, OG): 184 ng/mL | potency in TNFα release assay relative to compound 1 (times less potent) [5]: ~5 × | TNFα secretion in LPS-stimulated microglia [5]: significantly decreased TNFα secretion | body mass vs vehicle-treated controls [9]: mild increase in body mass | survival, hindlimb strength, gross pathology [9]: No differences in survival, hindlimb strength, or gross pathology | % Enzyme Activity (relative to DMSO controls) ([10]; LYN B): 89.48% | % Enzyme Activity (relative to DMSO controls) ([10]; PKCb2): 89.45% | % Enzyme Activity (relative to DMSO controls) ([10]; PKG1b): 101.46%

CN1CCN(Cc2ccc(-c3cnc4[nH]cc(-c5cccc(Cl)c5)c4c3)cc2)CC1 [Compound 7ad, 3-(3-Chlorophenyl)-5-(4-((4-methylpiperazin-1-yl)methyl)phenyl)-1H-pyrrolo[2,3-b]pyridine]
number of the 60 kinases strongly inhibited (<20% residual activity) [4]: 12
